Reference: patent US9334264B2, “NAMPT inhibitors” (AbbVie Inc., priority 2012, dated 2016)

Assays:
[1] = molecular target: NAMPT (human, recombinant, C-terminally His-tagged) (Homo sapiens, UniProt P43490); assay: Time-Resolved Fluorescence Resonance Energy Transfer (TR-FRET) Binding Assay of NAMPT; conditions: absence of substrates; 6.8 nM NAMPT, 200 nM probe, equilibrated 3 hours
Protocol: Determination of the utility of compounds having Formula (I) as binders to and inhibitors of NAMPT was performed using Time-Resolved Fluorescence Resonance Energy Transfer (TR-FRET) binding assays.
Time-Resolved Fluorescence Resonance Energy Transfer (TR-FRET) Binding Assay of NAMPT
Test compounds were serially diluted (typically 11 half log dilutions) in neat DMSO to 50× final concentrations prior to dilution with assay buffer (50 mM HEPES (NaOH), pH 7.5, 100 mM NaCl, 10 mM MgCl2, 1 mM DTT, 1% Glycerol) to 3× and 6% DMSO. Six μL were transferred to 384-well low-volume plates (Owens Corning #3673). To this, 12 μL of a 1.5× solution containing enzyme, probe and antibody were added. Final concentrations in the 18 μL reactions were 1× assay buffer, 2% DMSO, 6.8 nM NAMPT (human, recombinant, C-terminally His-tagged), 200 nM probe (a potent nicotinamide-competitive inhibitor conjugated to Oregon Green 488) and 1 nM Tb-anti-His antibody (Invitrogen #PV5895). Reactions were equilibrated at room temperature for 3 hours prior to reading on an Envision multi-label plate reader (Perkin Elmer; Ex=337 nm, Em=520 and 495 nm). Time-resolved FRET ratios (Em520/Em495) were normalized to controls, plotted as a function of compound concentration and fit with the four-parameter logistic equation to determine IC50s.

NAMPT = NAMPT (Homo sapiens, UniProt P43490); assay: Time-Resolved Fluorescence Resonance Energy Transfer (TR-FRET) Binding Assay of NAMPT with PRPP; conditions: 200 μM PRPP and 2.5 mM ATP; 2 nM NAMPT, 2 nM probe, equilibrated 16 hours
Protocol: Time-Resolved Fluorescence Resonance Energy Transfer (TR-FRET) Binding Assay of NAMPT with PRPP
Compound handling and data processing were identical to the assay in the absence of substrates (above). Final concentrations were 1× assay buffer, 2% DMSO, 2 nM NAMPT, 2 nM probe, 1 nM Tb-anti-His antibody (Invitrogen #PV5895), 200 μM PRPP and 2.5 mM ATP. Reactions were equilibrated for 16 hours prior to measurement to allow for potential enzymatic modification of test compounds.

Chain of NAMPT (human, recombinant, C-terminally His-tagged) (P43490 whole entry): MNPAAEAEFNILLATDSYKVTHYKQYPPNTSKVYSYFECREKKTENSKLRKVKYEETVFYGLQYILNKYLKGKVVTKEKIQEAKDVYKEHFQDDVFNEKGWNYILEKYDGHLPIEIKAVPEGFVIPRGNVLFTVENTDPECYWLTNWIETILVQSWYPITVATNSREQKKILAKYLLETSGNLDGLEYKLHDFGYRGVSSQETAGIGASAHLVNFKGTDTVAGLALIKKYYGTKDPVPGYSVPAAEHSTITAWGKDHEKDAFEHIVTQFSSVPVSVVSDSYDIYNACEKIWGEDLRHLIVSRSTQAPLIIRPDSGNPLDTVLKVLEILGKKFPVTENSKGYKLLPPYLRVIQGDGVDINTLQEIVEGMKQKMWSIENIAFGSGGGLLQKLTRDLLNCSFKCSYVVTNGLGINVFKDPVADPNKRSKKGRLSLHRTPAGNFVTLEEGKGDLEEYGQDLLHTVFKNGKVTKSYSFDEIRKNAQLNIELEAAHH
Chain of NAMPT (P43490 whole entry): as above

Row | Compound | IC50 [1] [nM] | IC50 (NAMPT) [nM]
1 | O=C(NCCCn1ccnc1)c1cnc(N(Cc2ccc(F)cc2)Cc2ccc(-c3cccnc3)cc2)s1 [Example 1, 2-{(4-fluorobenzyl)[4-(pyridin-3-yl)benzyl]amino}-N-[3-(1H-imidazol-1-yl)propyl]-1,3-thiazole-5-carboxamide] | 63.8 | 
2 | CN(Cc1ccc(F)cc1)c1ncc(C(=O)NCCCn2ccnc2)s1 [Example 3, 2-[(4-fluorobenzyl)(methyl)amino]-N-[3-(1H-imidazol-1-yl)propyl]-1,3-thiazole-5-carboxamide] |  | 71.5
3 | O=C(NCCCn1ccnc1)c1cnc(N(CCCN2CCOCC2)Cc2ccc(F)cc2)s1 [Example 7, 2-{(4-fluorobenzyl)[3-(morpholin-4-yl)propyl]amino}-N-[3-(1H-imidazol-1-yl)propyl]-1,3-thiazole-5-carboxamide] | 1610 | 486
4 | O=C(NCCCn1ccnc1)c1cnc(N(CCCN2CCCCC2)Cc2ccc(F)cc2)s1 [Example 8, 2-{(4-fluorobenzyl)[3-(piperidin-1-yl)propyl]amino}-N-[3-(1H-imidazol-1-yl)propyl]-1,3-thiazole-5-carboxamide] | 3160 | 290
5 | O=C(NCCCn1ccnc1)c1cnc(N(CCN2CCCC2)Cc2ccc(F)cc2)s1 [Example 9, 2-{(4-fluorobenzyl)[2-(pyrrolidin-1-yl)ethyl]amino}-N-[3-(1H-imidazol-1-yl)propyl]-1,3-thiazole-5-carboxamide] |  | 641
6 | CC(C)N1CCN(CCN(Cc2ccc(F)cc2)c2ncc(C(=O)NCCCn3ccnc3)s2)CC1 [Example 10, 2-[(4-fluorobenzyl){2-[4-(propan-2-yl)piperazin-1-yl]ethyl}amino]-N-[3-(1H-imidazol-1-yl)propyl]-1,3-thiazole-5-carboxamide] | 281 | 19.6
7 | O=C(NCCCn1ccnc1)c1cnc(N(Cc2ccc(F)cc2)Cc2c(Cl)ccc3c2OCO3)s1 [Example 14, 2-{[(5-chloro-1,3-benzodioxol-4-yl)methyl](4-fluorobenzyl)amino}-N-[3-(1H-imidazol-1-yl)propyl]-1,3-thiazole-5-carboxamide] |  | 338
8 | O=C(NCCCn1ccnc1)c1cnc(N(Cc2ccc(F)cc2)Cc2ccc(Cl)cc2)s1 [Example 15, 2-[(4-chlorobenzyl)(4-fluorobenzyl)amino]-N-[3-(1H-imidazol-1-yl)propyl]-1,3-thiazole-5-carboxamide] | 3820 | 92.1
9 | O=C(NCCCn1ccnc1)c1cnc(N(Cc2ccc(F)cc2)Cc2ccccc2Cl)s1 [Example 16, 2-[(2-chlorobenzyl)(4-fluorobenzyl)amino]-N-[3-(1H-imidazol-1-yl)propyl]-1,3-thiazole-5-carboxamide] | 4720 | 217
10 | O=C(NCCCn1ccnc1)c1cnc(N(Cc2ccc(F)cc2)Cc2cc(Cl)ccc2Cl)s1 [Example 17, 2-[(2,5-dichlorobenzyl)(4-fluorobenzyl)amino]-N-[3-(1H-imidazol-1-yl)propyl]-1,3-thiazole-5-carboxamide] |  | 1220
11 | CNC(=O)CN(Cc1ccc(F)cc1)c1ncc(C(=O)NCCCn2ccnc2)s1 [Example 18, 2-{(4-fluorobenzyl)[2-(methylamino)-2-oxoethyl]amino}-N-[3-(1H-imidazol-1-yl)propyl]-1,3-thiazole-5-carboxamide] | 4820 | 814
12 | CC(C)NC(=O)CN(Cc1ccc(F)cc1)c1ncc(C(=O)NCCCn2ccnc2)s1 [Example 19, 2-{(4-fluorobenzyl)[2-oxo-2-(propan-2-ylamino)ethyl]amino}-N-[3-(1H-imidazol-1-yl)propyl]-1,3-thiazole-5-carboxamide] |  | 12500
13 | CN(C)C(=O)CN(Cc1ccc(F)cc1)c1ncc(C(=O)NCCCn2ccnc2)s1 [Example 20, 2-{[2-(dimethylamino)-2-oxoethyl](4-fluorobenzyl)amino}-N-[3-(1H-imidazol-1-yl)propyl]-1,3-thiazole-5-carboxamide] |  | 12500
14 | CCN(CC)C(=O)CN(Cc1ccc(F)cc1)c1ncc(C(=O)NCCCn2ccnc2)s1 [Example 21, 2-{[2-(diethylamino)-2-oxoethyl](4-fluorobenzyl)amino}-N-[3-(1H-imidazol-1-yl)propyl]-1,3-thiazole-5-carboxamide] | 996 | 505
15 | O=C(NCCCn1ccnc1)c1cnc(N(CC(=O)N2CCOCC2)Cc2ccc(F)cc2)s1 [Example 22, 2-{(4-fluorobenzyl)[2-(morpholin-4-yl)-2-oxoethyl]amino}-N-[3-(1H-imidazol-1-yl)propyl]-1,3-thiazole-5-carboxamide] | 384 | 60.2

Results, then the compound that gave them:

Row | IC50 [1] [nM] | IC50 (NAMPT) [nM] | Compound
16 | 7560 | 4.29 | CN(Cc1ccc(-c2cccnc2)cc1)c1ncc(C(=O)NCCCn2ccnc2)s1 [Example 2, N-[3-(1H-imidazol-1-yl)propyl]-2-{methyl[4-(pyridin-3-yl)benzyl]amino}-1,3-thiazole-5-carboxamide]
17 | 1220 | 0.548 | O=C(NCCCn1ccnc1)c1cnc(N(Cc2ccc(F)cc2)C(=O)CC2CCOCC2)s1 [Example 4, 2-[(4-fluorobenzyl)(tetrahydro-2H-pyran-4-ylacetyl)amino]-N-[3-(1H-imidazol-1-yl)propyl]-1,3-thiazole-5-carboxamide]
18 | 720 | 0.461 | O=C(NCCCn1ccnc1)c1cnc(N(Cc2ccc(F)cc2)C(=O)CC2CCCCC2)s1 [Example 5, 2-[(cyclohexylacetyl)(4-fluorobenzyl)amino]-N-[3-(1H-imidazol-1-yl)propyl]-1,3-thiazole-5-carboxamide]
19 | 476 | 0.47 | N#Cc1ccc(C(=O)N(Cc2ccc(F)cc2)c2ncc(C(=O)NCCCn3ccnc3)s2)cc1 [Example 11, 2-[(4-cyanobenzoyl)(4-fluorobenzyl)amino]-N-[3-(1H-imidazol-1-yl)propyl]-1,3-thiazole-5-carboxamide]
20 | 303 | 0.241 | O=C(NCCCn1ccnc1)c1cnc(N(Cc2ccc(F)cc2)C(=O)c2cccc(Cl)c2)s1 [Example 12, 2-[(3-chlorobenzoyl)(4-fluorobenzyl)amino]-N-[3-(1H-imidazol-1-yl)propyl]-1,3-thiazole-5-carboxamide]
21 | 1750 | 0.403 | O=C(NCCCn1ccnc1)c1cnc(N(Cc2ccc(F)cc2)C(=O)c2ccc(F)cc2)s1 [Example 13, 2-[(4-fluorobenzoyl)(4-fluorobenzyl)amino]-N-[3-(1H-imidazol-1-yl)propyl]-1,3-thiazole-5-carboxamide]
22 | 4140 | 0.682 | COCC(=O)N(Cc1ccc(F)cc1)c1ncc(C(=O)NCCCn2ccnc2)s1 [Example 24, 2-[(4-fluorobenzyl)(methoxyacetyl)amino]-N-[3-(1H-imidazol-1-yl)propyl]-1,3-thiazole-5-carboxamide]
23 | 1630 | 1.4 | COCCC(=O)N(Cc1ccc(F)cc1)c1ncc(C(=O)NCCCn2ccnc2)s1 [Example 25, 2-[(4-fluorobenzyl)(3-methoxypropanoyl)amino]-N-[3-(1H-imidazol-1-yl)propyl]-1,3-thiazole-5-carboxamide]
24 |  | 1.21 | CN(C)CC(=O)N(Cc1ccc(F)cc1)c1ncc(C(=O)NCCCn2ccnc2)s1 [Example 26, 2-[(N,N-dimethylglycyl)(4-fluorobenzyl)amino]-N-[3-(1H-imidazol-1-yl)propyl]-1,3-thiazole-5-carboxamide]
25 | > 10000 | 0.632 | O=C(NCCCn1ccnc1)c1cnc(N(Cc2ccc(F)cc2)C(=O)CN2CC=CCC2)s1 [Example 27, 2-[(3,6-dihydropyridin-1(2H)-ylacetyl)(4-fluorobenzyl)amino]-N-[3-(1H-imidazol-1-yl)propyl]-1,3-thiazole-5-carboxamide]
26 | 7020 | 0.833 | CC1CCN(CC(=O)N(Cc2ccc(F)cc2)c2ncc(C(=O)NCCCn3ccnc3)s2)CC1 [Example 28, 2-{(4-fluorobenzyl)[(4-methylpiperidin-1-yl)acetyl]amino}-N-[3-(1H-imidazol-1-yl)propyl]-1,3-thiazole-5-carboxamide]
27 | > 10000 | 2.16 | O=C(NCCCn1ccnc1)c1cnc(N(Cc2ccc(F)cc2)C(=O)CN2CCC(O)CC2)s1 [Example 29, 2-{(4-fluorobenzyl)[(4-hydroxypiperidin-1-yl)acetyl]amino}-N-[3-(1H-imidazol-1-yl)propyl]-1,3-thiazole-5-carboxamide]
28 | > 10000 | 2.29 | CN1CCN(CC(=O)N(Cc2ccc(F)cc2)c2ncc(C(=O)NCCCn3ccnc3)s2)CC1 [Example 30, 2-{(4-fluorobenzyl)[(4-methylpiperazin-1-yl)acetyl]amino}-N-[3-(1H-imidazol-1-yl)propyl]-1,3-thiazole-5-carboxamide]
